{
  "source": "patent US6087390A",
  "about": "“Derivatives of antifungal substance BE-31405 and process for producing the same” (Banyu Pharmaceutical Co., Ltd., priority 1997, dated 2000)",
  "data": [
    {"tested_on": "Candida albicans IFO1385", "experiment": "Antifungal activity: MIC against Candida albicans IFO1385 on yeast nitrogen base agar", "format": "cell-based", "conditions": "48 h; 2 days of incubation at 37° C., yeast nitrogen base agar with 1% glucose and 0.25% dipotassium hydrogen phosphate; single use; read-out: MIC", "units": {"MIC": "µg/mL"}, "protocol": "^b MICs were determined against Candida albicans IFO1385 after 2 days\nof incubation of the test strain at 37° C. on yeastnitrogen base\nagar (containing 1% glucose and 0.25% dipotassium hydrogen phosphate,", "values": [
      {"smiles": "CCCCCC(=O)OC1C2OC3(OCC45CC6C(C)CCC6C6(C=O)CC4C=C(C(C)C)C65C(=O)O)OC2OC1C3O", "note": "(stereo not drawn) [Compound 13, 8a-[[[6-(n-hexanoyloxy)tetrahydro-7-hydroxy-2,5-methanofuro[2,3-d]-1,3-dioxol-2-yl]oxy]methyl]-4-formyl-4,4a,5,6,7,7a,8,8a-octahydro-7-methyl-3-(1-methylethyl)-1,4-methano-s-indacene-3a(1H)-carboxylic acid]", "MIC": 3.13},
      {"smiles": "CCCCCCOC1C2OC3(OCC45CC6C(C)CCC6C6(C=O)CC4C=C(C(C)C)C65C(=O)O)OC2OC1C3O", "note": "(stereo not drawn) [Compound 47, 8a-[[[6-(hexyloxy)tetrahydro-7-hydroxy-2,5-methanofuro[2,3-d]-1,3-dioxol-2-yl]oxy]methyl]-4-formyl-4,4a,5,6,7,7a,8,8a-octahydro-7-methyl-3-(1-methylethyl)-1,4-methano-s-indacene-3a(1H)-carboxylic acid]", "MIC": 1.56},
      {"smiles": "CCCCCCC(=O)OC1C2OC3(OCC45CC6C(C)CCC6C6(C=O)CC4C=C(C(C)C)C65C(=O)O)OC2OC1C3O", "note": "(stereo not drawn) [Compound 14, 8a-[[[6-(n-heptanoyloxy)tetrahydro-7-hydroxy-2,5-methanofuro[2,3-d]-1,3-dioxol-2-yl]oxy]methyl]-4-formyl-4,4a,5,6,7,7a,8,8a-octahydro-7-methyl-3-(1-methylethyl)-1,4-methano-s-indacene-3a(1H)-carboxylic acid]", "MIC": 1.56},
      {"smiles": "CC(C)CCOC1C2OC3(OCC45CC6C(C)CCC6C6(C=O)CC4C=C(C(C)C)C65C(=O)O)OC2OC1C3O", "note": "(stereo not drawn) [Compound 44, 8a-[[[6-(isopentyloxy)tetrahydro-7-hydroxy-2,5-methanofuro[2,3-d]-1,3-dioxol-2-yl]oxy]methyl]-4-formyl-4,4a,5,6,7,7a,8,8a-octahydro-7-methyl-3-(1-methylethyl)-1,4-methano-s-indacene-3a(1H)-carboxylic acid]", "MIC": 3.13},
      {"smiles": "CCCCCOC1C2OC3(OCC45CC6C(C)CCC6C6(C=O)CC4C=C(C(C)C)C65C(=O)O)OC2OC1C3O", "note": "(stereo not drawn) [Compound 41, 8a-[[[6-(pentyloxy)tetrahydro-7-hydroxy-2,5-methanofuro[2,3-d]-1,3-dioxol-2-yl]oxy]methyl]-4-formyl-4,4a,5,6,7,7a,8,8a-octahydro-7-methyl-3-(1-methylethyl)-1,4-methano-s-indacene-3a(1H)-carboxylic acid]", "MIC": 1.56},
      {"smiles": "CCCCCCCCCCOC1C2OC3(OCC45CC6C(C)CCC6C6(C=O)CC4C=C(C(C)C)C65C(=O)O)OC2OC1C3O", "note": "(stereo not drawn) [Compound 50, 8a-[[[6-(decyloxy)tetrahydro-7-hydroxy-2,5-methanofuro[2,3-d]-1,3-dioxol-2-yl]oxy]methyl]-4-formyl-4,4a,5,6,7,7a,8,8a-octahydro-7-methyl-3-(1-methylethyl)-1,4-methano-s-indacene-3a(1H)-carboxylic acid]", "MIC": 3.13},
      {"smiles": "CCCCOC1C2OC3(OCC45CC6C(C)CCC6C6(C=O)CC4C=C(C(C)C)C65C(=O)O)OC2OC1C3O", "note": "(stereo not drawn) [Compound 38, 8a-[[[6-(butoxy)tetrahydro-7-hydroxy-2,5-methanofuro[2,3-d]-1,3-dioxol-2-yl]oxy]methyl]-4-formyl-4,4a,5,6,7,7a,8,8a-octahydro-7-methyl-3-(1-methylethyl)-1,4-methano-s-indacene-3a(1H)-carboxylic acid]", "MIC": 3.13},
      {"smiles": "CCCCC(=O)OC1C2OC3(OCC45CC6C(C)CCC6C6(C=O)CC4C=C(C(C)C)C65C(=O)O)OC2OC1C3O", "note": "(stereo not drawn) [Compound 10, 8a-[[[6-(n-valeryloxy)tetrahydro-7-hydroxy-2,5-methanofuro[2,3-d]-1,3-dioxol-2-yl]oxy]methyl]-4-formyl-4,4a,5,6,7,7a,8,8a-octahydro-7-methyl-3-(1-methylethyl)-1,4-methano-s-indacene-3a(1H)-carboxylic acid]", "MIC": 6.25}
    ]},
    {"tested_on": "Candida albicans IFO1385", "experiment": "Antifungal activity: MIC against Candida albicans IFO1385 on yeast nitrogen base agar", "format": "cell-based", "conditions": "2 days of incubation at 37° C., yeast nitrogen base agar with 1% glucose and 0.25% dipotassium hydrogen phosphate; single use", "units": {"MIC": "µg/mL"}, "values": [
      {"smiles": "CC(=O)O[C@@H]1[C@@H]2O[C@@]3(OC[C@@]45C[C@@H]6[C@H](C)CC[C@H]6[C@@]6(C=O)C[C@@H]4C=C(C(C)C)[C@@]56C(=O)O)O[C@@H]2O[C@@H]1[C@@H]3O", "note": "[BE-31405]", "MIC": 50},
      {"smiles": "COC1C2OC3(OCC45CC6C(C)CCC6C6(C=O)CC4C=C(C(C)C)C65C(=O)O)OC2OC1C3O", "note": "(stereo not drawn) [SCH57404 (xylarin), reference compound]", "MIC": 100}
    ]},
    {"tested_on": "a certain kind of fungus", "experiment": "not given", "conditions": "in vitro, acidic conditions", "values": [
      {"smiles": "CC(=O)O[C@@H]1[C@@H]2O[C@@]3(OC[C@@]45C[C@@H]6[C@H](C)CC[C@H]6[C@@]6(C=O)C[C@@H]4C=C(C(C)C)[C@@]56C(=O)O)O[C@@H]2O[C@@H]1[C@@H]3O", "note": "[BE-31405]", "growth inhibitory (antifungal) activity under acidic conditions": "shows growth inhibitory activity against a certain kind of fungus in vitro especially under acidic conditions"}
    ]},
    {"tested_on": "a certain kind of fungus", "experiment": "not given", "conditions": "neutral conditions", "values": [
      {"smiles": "CC(=O)O[C@@H]1[C@@H]2O[C@@]3(OC[C@@]45C[C@@H]6[C@H](C)CC[C@H]6[C@@]6(C=O)C[C@@H]4C=C(C(C)C)[C@@]56C(=O)O)O[C@@H]2O[C@@H]1[C@@H]3O", "note": "[BE-31405]", "antifungal activity under neutral conditions": "the activity remarkably lowers under neutral conditions"}
    ]}
  ]
}
